Source: patent publication US4465631A, “5-Substituted-3-isoxazolecarboxylic acid derivatives” (Ajinomoto Company, Incorporated, priority 1982, dated 1984)
In brackets after ≈: the same amount, converted by molar mass. Where a name gives a salt, the structure may show the parent alone. Read-outs that look alike come from different tables or passages of the source.

Columns and labels:
Assay in all cases: Antibacterial activity (MIC)
Format in all cases: cell-based
Klebsiella pneumoniae = test system: Klebsiella pneumoniae
Description: (§1) Regarding the products produced in the above mentioned Examples antibacterial activities against some microorganisms were obtained.

[1] = test system: Achromobacter xylosoxidans
Description: as §1

Proteus mirabilis = test system: Proteus mirabilis
Description: as §1

Alcaligenes faecalis = test system: Alcaligenes faecalis
Description: as §1

Staphylococcus aureus = test system: Staphylococcus aureus
Description: as §1

Pseudomonas aeruginosa = test system: Pseudomonas aeruginosa
Description: as §1

Pseudomonas maltophilia = settings: Stenotrophomonas maltophilia
Description: as §1

Serratia marcescens = test system: Serratia marcescens
Description: as §1

Escherichia coli = test system: Escherichia coli
Description: as §1

Pseudomonas cepacia = settings: Burkholderia cepacia
Description: as §1

Bacteroides fragilis = test system: Bacteroides fragilis
Description: as §1

MIC (Klebsiella pneumoniae) | MIC [1] | MIC (Proteus mirabilis) | MIC (Alcaligenes faecalis) | MIC (Staphylococcus aureus) | MIC (Pseudomonas aeruginosa) | MIC (Pseudomonas maltophilia) | MIC (Serratia marcescens) | MIC (Pseudomonas cepacia) | MIC (Bacteroides fragilis) | MIC (Escherichia coli; read-out: MIC) | Structure (SMILES) | MIC (Escherichia coli)
6.25 mg/L (≈ 11.7 µM) | 1.56 mg/L (≈ 2.92 µM) | 0.78 mg/L (≈ 1.46 µM) | 6.25 mg/L (≈ 11.7 µM) | ≤ 0.1 mg/L | 3.13 mg/L (≈ 5.85 µM) | 6.25 mg/L (≈ 11.7 µM) | 12.5 mg/L (≈ 23.4 µM) | 3.13 mg/L (≈ 5.85 µM) | 6.25 mg/L (≈ 11.7 µM) | 12.5 mg/L (≈ 23.4 µM) | Cc1ccc(-c2cc(C(=O)N[C@@H](C(=O)N[C@@H]3C(=O)N4[C@@H]3SC(C)(C)[C@@H]4C(=O)O)c3ccccc3)no2)cc1 [Example 1, α-[5-(4-methylphenyl)-3-isoxazolecarboxamido]-benzylpenicillin] | –
12.5 mg/L | 3.13 mg/L | 0.39 mg/L | 6.25 mg/L | 0.2 mg/L | 6.25 mg/L | 12.5 mg/L | 12.5 mg/L | 3.13 mg/L | 12.5 mg/L | 12.5 mg/L | COc1cccc(-c2cc(C(=O)N[C@@H](C(=O)N[C@@H]3C(=O)N4[C@@H]3SC(C)(C)[C@@H]4C(=O)O)c3ccccc3)no2)c1 [Example 3, D-α-(5-m-anisylisoxazole-3-carboxamido)-benzylpenicillin sodium salt] | –
12.5 mg/L | 3.13 mg/L | 0.78 mg/L | 12.5 mg/L | ≤ 0.1 mg/L | 6.25 mg/L | 12.5 mg/L | 25 mg/L | 6.25 mg/L | 12.5 mg/L | 12.5 mg/L | CC1(C)S[C@@H]2[C@H](NC(=O)[C@H](NC(=O)c3cc(-c4cccs4)on3)c3ccccc3)C(=O)N2[C@H]1C(=O)O [Example 8, D-α-[5-(2-thienyl)-isoxazole-3-carboxamido]-benzyl-penicillin sodium salt] | –

Structure (SMILES) | MIC (Klebsiella pneumoniae) | MIC [1] | MIC (Proteus mirabilis) | MIC (Alcaligenes faecalis) | MIC (Staphylococcus aureus) | MIC (Pseudomonas aeruginosa) | MIC (Pseudomonas maltophilia) | MIC (Serratia marcescens) | MIC (Pseudomonas cepacia) | MIC (Bacteroides fragilis) | MIC (Escherichia coli; read-out: MIC) | MIC (Escherichia coli)
CC1(C)S[C@@H]2[C@H](NC(=O)C(C(=O)O)c3ccccc3)C(=O)N2[C@H]1C(=O)O (some centres unmarked) [Carbenicillin, reference compound] | > 100 mg/L | > 100 mg/L | 0.78 mg/L (≈ 2.06 µM) | > 100 mg/L | 0.78 mg/L (≈ 2.06 µM) | 25 mg/L (≈ 66.1 µM) | > 100 mg/L | > 100 mg/L | > 100 mg/L | > 100 mg/L | – | 12.5 mg/L (≈ 33 µM)
